The target of one experiment is T1, murine SR-BI (Mus musculus, UniProt Q61009).
T1 construct: expressed in transfected cells; host or cells: ldlA-7 (LDL receptor deficient Chinese hamster ovary cells)
T1 sequence (Q61009 1-509): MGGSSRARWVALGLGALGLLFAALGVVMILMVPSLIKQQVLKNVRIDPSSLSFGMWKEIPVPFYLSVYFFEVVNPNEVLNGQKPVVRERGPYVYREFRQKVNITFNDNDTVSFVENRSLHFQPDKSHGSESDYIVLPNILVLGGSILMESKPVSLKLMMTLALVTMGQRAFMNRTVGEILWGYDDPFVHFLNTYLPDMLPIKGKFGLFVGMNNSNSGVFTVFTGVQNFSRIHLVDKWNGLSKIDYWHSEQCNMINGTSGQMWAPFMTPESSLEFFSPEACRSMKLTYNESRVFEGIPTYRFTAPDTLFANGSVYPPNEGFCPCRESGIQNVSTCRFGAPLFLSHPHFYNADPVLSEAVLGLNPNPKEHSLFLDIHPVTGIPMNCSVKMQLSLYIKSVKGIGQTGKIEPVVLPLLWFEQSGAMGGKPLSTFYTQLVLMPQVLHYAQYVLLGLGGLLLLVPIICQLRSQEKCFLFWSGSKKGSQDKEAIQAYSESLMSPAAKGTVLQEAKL
The experiment can be described thus: Uptake of DiI from DiI-HDL by ldlA[mSR-BI] cells (high throughput screen and concentration dependence). Particulars: Test 1. The class given is cell-based.
In the case of `C/C(=N\NC(=O)c1ccccc1I)c1ccc(N)cc1` [MIT 9952-6], the “ENDOHDL Test 1” value was found to be 0.52.
As for `CCCCOCCC1CCC/C1=N\NC(N)=S` (centres unmarked) [MIT 9952-61], the “ENDOHDL Test 1” value is recorded as 0.7.

The same experiment, now with this note: Test 1; DiI uptake from DiI-HDL, compounds at nominal 10 micromolar, ldlA[mSR-BI] cells.
With `Cc1ccc(NC(=S)NC(NC(=O)c2ccccc2Cl)C(Cl)(Cl)Cl)cc1` (centres unmarked) [MIT 9952-332], the “ENDOHDL Test 1” value is listed as 0.69.
Still for that read-out and setting: to `C/C(CCS(=O)(=O)c1ccc(C)cc1)=N\NC(N)=S` [MIT 9952-333] belongs 0.56; to `Nc1ccc(C(=O)Nc2ccc(-c3nc4ccc(NC(=O)c5ccc(N)cc5)c(Cl)c4[nH]3)cc2Cl)cc1` [MIT 9952-334], 0.57; to `COc1ccc2c(c1)c(C(C)=O)c(C)n2-c1ccccc1` [MIT 9952-335], 0.57.

The same experiment, now with this note: Test 2.
As for `C/C(=N\NC(=O)c1ccccc1I)c1ccc(N)cc1` [MIT 9952-6], the “ENDOHDL Test 2” value is 0.54.
Take `CCCCOCCC1CCC/C1=N\NC(N)=S` (centres unmarked) [MIT 9952-61]: the “ENDOHDL Test 2” value stood at 0.57.

Still in this experiment, the particulars now being: Test 2; DiI uptake from DiI-HDL, compounds at nominal 10 micromolar, ldlA[mSR-BI] cells.
Take `Cc1ccc(NC(=S)NC(NC(=O)c2ccccc2Cl)C(Cl)(Cl)Cl)cc1` (centres unmarked) [MIT 9952-332]: the “ENDOHDL Test 2” value worked out at 0.67.
Take `C/C(CCS(=O)(=O)c1ccc(C)cc1)=N\NC(N)=S` [MIT 9952-333]: the “ENDOHDL Test 2” value worked out at 0.59.
Take `Nc1ccc(C(=O)Nc2ccc(-c3nc4ccc(NC(=O)c5ccc(N)cc5)c(Cl)c4[nH]3)cc2Cl)cc1` [MIT 9952-334]: the “ENDOHDL Test 2” value is listed as 0.55.
Consider `COc1ccc2c(c1)c(C(C)=O)c(C)n2-c1ccccc1` [MIT 9952-335], for which the “ENDOHDL Test 2” value worked out at 0.49.

The experiment is the same for the next values; noted with them: ldlA[mSR-BI] cells.
As to `CCCCOCCC1CCC/C1=N\NC(N)=S` (centres unmarked) [MIT 9952-61], the “Inhibition of SR-BI-mediated lipid transport / DiI uptake, concentration range in words” value is recorded as “inhibited in the nanomolar range”.

The same experiment, now with this note: ldlA[mSR-BI] cells; inhibition; mean ± SD, n=3.
As to `C/C(=N\NC(=O)c1ccccc1I)c1ccc(N)cc1` [MIT 9952-6], a half-maximal response (EC50) required 7.1 ± 3.7 µM.
The same measure, in the same setting: to `CCCCOCCC1CCC/C1=N\NC(N)=S` (centres unmarked) [MIT 9952-61] belongs 0.35 ± 0.18 µM.

In a further experiment the target is T1, murine SR-BI. The experiment can be described thus: Uptake of [3H]cholesteryl ether from [3H]CE-HDL by ldlA[mSR-BI] cells. The format is cell-based.
Settings: not given
As for the experimental part:
(§1) Cells were pre-incubated with BLTs for 1 hr (or 2.5 hrs for transferrin, EGF and cholera toxin uptake experiments) and all the experiments were performed at 37° C. Detailed characterization of the BLTs and their effects was performed with compounds whose identities and purities were confirmed by LC-MS.
(§2) Assays for the uptake of lipids from DiI-HDL and [^3]CE-HDL, efflux of [^3H]cholesterol from labeled cells, and ^125I-HDL binding were performed as described by Acton et al. Science (1996) January 26;271(5248):518-20; Gu, et al. J Biol. Chem. (2000) September 29;275(39):29993-30001; and Ji, et al., J. Biol. Chem. (1997) 272, 20982-5. In some experiments, values were normalized so that the 100% of control represents activity in the absence of compounds and 0% represents activity determined in the presence of a 40-fold excess of unlabeled HDL or, for Y1-BS1 cells, in the presence of a 1:500 dilution of the KKB-1 blocking antibody (Gu, et al., 2000, generous gift from Karen Kozarsky). The amounts of cell-associated [^3H]cholesteryl ether are expressed as the equivalent amount of [^3H]CE-HDL protein (ng) to permit direct comparison of the relative amounts of ^125I-HDL binding and [^3H]CE uptake.
Take `C/C(=N\NC(=O)c1ccccc1I)c1ccc(N)cc1` [MIT 9952-6]: the “ICCE95 concentration (inhibits [3H]CE uptake by 95%)” value came to 50 µM.
For the compound `CCCCOCCC1CCC/C1=N\NC(N)=S` (centres unmarked) [MIT 9952-61], the “ICCE95 concentration (inhibits [3H]CE uptake by 95%)” value amounted to 1 µM.

Staying with this experiment, now noted: inhibition, mean ± SD, n=6 (n=5 where footnoted), read-out: (A) EC50 [^3H]CEt HDL uptake.
As for `C/C(=N\NC(=O)c1ccccc1I)c1ccc(N)cc1` [MIT 9952-6], the EC50 (usually the concentration at which the effect is half-maximal) was determined as 13.8 µM.
For the compound `CCCCOCCC1CCC/C1=N\NC(N)=S` (centres unmarked) [MIT 9952-61], the EC50 is 0.24 ± 0.1 µM.

The next experiment concerns the target T2, SR-BI (Mus musculus, UniProt Q61009).
T2 construct: endogenous in cells; host or cells: Y1-BS1 murine adrenocortical cells (ACTH induced)
T2 sequence (Q61009 1-509): T1 sequence (Q61009 1-509)
The experiment can be described thus: Uptake of [3H]CE from [3H]CE-HDL by Y1-BS1 adrenocortical cells. The format is cell-based, murine. As to conditions: inhibition, n=2, read-out: (A) EC50 [^3H]CEt HDL uptake (Y1-BS1 cells).
Text: Biol. Chem. 273, 26338-48; Gu, et al. (2000) J. Biol. Chem. 275, 29993-30001; Acton, et al. (1994) J. Biol. Chem. 269, 21003-9; Pitas, et al. (1981) Arteriosclerosis 1, 177-85). LDL receptor deficient Chinese hamster ovary cells that express low levels of endogenous SR-BI, ldlA-7 (Kingsley, et al. (1984) Proc. Nat. Acad. Sci. USA 81, 5454-8), ldlA-7 cells stably transfected to express high levels of murine SR-BI (ldlA[mSR-BI])(Acton, et al., 1996), Y1-BS1 murine adrenocortical cells that express high levels of SR-BI after induction with ACTH (Rigotti, et al. (1996) J. Biol. Chem. 271, 33545-9), monkey kidney BS-C1 cells (Kapoor, et al. (2000) Journal of Cell Biology 150, 975-88) and HeLa cells (Temel, et al. (2002) J Biol Chem 8, 8) were maintained as previously described.
as §1, §2
On to `C/C(=N\NC(=O)c1ccccc1I)c1ccc(N)cc1` [MIT 9952-6], for which the EC50 stood at 8 µM.
On to `CCCCOCCC1CCC/C1=N\NC(N)=S` (centres unmarked) [MIT 9952-61], for which the EC50 came to 0.41 µM.

A further experiment has as its target T1, murine SR-BI. The experiment can be described thus: Efflux of [3H]cholesterol from ldlA[mSR-BI] cells to HDL. The format is cell-based.
Settings: not given
The protocol: as §1, §2
In addition to mediating selective lipid uptake from HDL, SR-BI can facilitate the efflux of unesterified cholesterol from cells to HDL particles (Jian, et al. (1998) J Biol Chem 273, 5599-606. Ji, et al. (1997) J. Biol. Chem. 272, 20982-5). To determine if the BLTs could inhibit this SR-BI-mediated lipid transport activity, cells were labeled with [^3H]cholesterol and its efflux to unlabeled HDL measured in the presence or absence of the BLTs. (FIG. 2C, table II). Cells were incubated for 3 hrs in the absence (top panels) or presence (bottom panels) of 50 micromolar BLT-1 (MIT 9952-53) and epifluorescence light microscopy was used to monitor the following cellular activities: clathrin-dependent endocytosis of fluorescently labeled transferrin (A,B; HeLa cells) and EGF (C,D; HeLa cells); clathrin-independent endocytosis of fluorescently labeled cholera toxin (E, F; BSC-1 cells), and transport of the temperature sensitive fluorescent membrane protein VSVG^ts045-EGFP from the ER to the cell surface (G,H; BSC-1 cells). In addition, the intracellular distributions of the actin cytoskeleton (visualized with rhodamine labeled phalloidin, I,J; ldlA-[mSRBI] cells) and the tubulin network (visualized with fluorescently labeled antibodies specific to y-tubulin, K,L; BSC-1 cells) were determined. BLT-1 (MIT 9952-53) and the other BLTs (not shown) had no effects on any of these cellular properties or activities.
In the case of `C/C(=N\NC(=O)c1ccccc1I)c1ccc(N)cc1` [MIT 9952-6], the “ICFC50 for efflux compared with that for uptake” value is listed as “higher”.

The experiment is the same for the next values; noted with them: inhibition of efflux to HDL, mean ± SD, n=3.
The compound `C/C(=N\NC(=O)c1ccccc1I)c1ccc(N)cc1` [MIT 9952-6] showed a 50% effective concentration (EC50) of 75.3 ± 40.1 µM.
`CCCCOCCC1CCC/C1=N\NC(N)=S` (centres unmarked) [MIT 9952-61] yielded an EC50 of 0.47 ± 0.23 µM.

The next experiment concerns the target T1, murine SR-BI. The experiment can be described thus: 125I-HDL binding to ldlA[mSR-BI] cells. As to conditions: 125I-HDL binding sites in presence of BLT at its ICCE95; no BLT control 100.0 ± 18.4. As for the experimental part:
as §1, §2
It was initially expected that the BLTs would function by inhibiting HDL binding to SR-BI. However, when cells were incubated with a sub-saturating concentration of either [^3H]CE-HDL or ^125I-labeled HDL (^125I-HDL) (10 μg protein/ml) and increasing amounts of compound (FIG. 5), the decreases in [^3H]CE uptake (solid lines, no symbols, data from FIG. 2B) and [3H]cholesterol efflux (dashed lines, data from FIG. 2C) were accompanied by corresponding increases in ^125I-HDL binding (solid lines, square symbols). The concentration dependence of ^125I-HDL binding was determined in the presence or absence of BLTs at their ICCE95 concentrations (FIG. 6 and Table II).
As to `C/C(=N\NC(=O)c1ccccc1I)c1ccc(N)cc1` [MIT 9952-6], the “(B) Binding Parameters Bmax” value is given as 92.1 ± 36.8%.
Turning to `CCCCOCCC1CCC/C1=N\NC(N)=S` (centres unmarked) [MIT 9952-61], the “(B) Binding Parameters Bmax” value is 93.0 ± 20.5%.

Staying with this experiment, now noted: ldlA[mSR-BI] cells.
As to `C/C(=N\NC(=O)c1ccccc1I)c1ccc(N)cc1` [MIT 9952-6], the “Effect on HDL binding to SR-BI” value is “enhanced”.
`CCCCOCCC1CCC/C1=N\NC(N)=S` (centres unmarked) [MIT 9952-61]: the “Effect on HDL binding to SR-BI” value was “enhanced”.

The same experiment, now with this note: ldlA[mSR-BI] cells; enhancement of HDL binding, 10 μg protein/ml HDL; mean ± SD, n=3; read-out: (A) EC50 ^1nI-HDL binding.
As to `C/C(=N\NC(=O)c1ccccc1I)c1ccc(N)cc1` [MIT 9952-6], the EC50 amounted to 18 ± 3.7 µM.
As to `CCCCOCCC1CCC/C1=N\NC(N)=S` (centres unmarked) [MIT 9952-61], the EC50 was 0.25 ± 0.13 µM.

The next experiment has as its target T1, murine SR-BI. The experiment can be described thus: Rate of 125I-HDL dissociation from cells. Particulars: dissociation of 125I-HDL from ldlA[mSR-BI] cells in presence of BLT; no BLT control 0.11; n=2; read-out: (B) Binding Parameters Koff (converted). The protocol: The rates of HDL dissociation from cells were determined by incubation of the cells with ^125I-HDL (10 μg protein/ml, 2 hrs, 37° C.) with and without BLTs. The medium was then either replaced with the same medium in which the ^125I-HDL was substituted by a 40-fold excess of unlabeled HDL or a 40-fold excess of unlabeled HDL was added to the labeled incubation medium. The amounts of cell-associated ^125I-HDL were then determined as a function of time. The two methods gave similar results.
Consider `C/C(=N\NC(=O)c1ccccc1I)c1ccc(N)cc1` [MIT 9952-6], for which the koff (in general, the rate constant with which the complex falls apart) was 0.00132 s⁻¹.
As to `CCCCOCCC1CCC/C1=N\NC(N)=S` (centres unmarked) [MIT 9952-61], the koff is 0.00103 s⁻¹.

Source of the values: patent publication US20040171073A1, “Compounds for modulation of cholesterol transport” (Massachusetts Institute of Technology, priority 2002, published 2004).
